≈ marks a conversion by molar mass, not a printed value. Where “and” joins values, the source holds several entries; their conditions need not be identical. Equal entries are not always repeated.
Columns and labels:
bacteria = assay: Derivation of provisional PNEC for antibiotic resistance (PNECABR)
Protocol: Antibiotic resistance risk is assessed through comparing PECs or MECs with a PNEC for formation or maintenance of antibiotic resistance (PNECABR). There is no universally accepted or regulatory algorithm for deriving a reliable PNECABR for bacteria, so for the time being this is approximated by applying assessment factors to bacterial minimal inhibitory concentrations (MICs). […] To be fully consistent with Bengtsson‐Palme and Larsson's (2016) approach to PNECABR derivation, the authors were contacted for help; they (J. Bengtsson‐Palme, Department of Infectious Diseases, Institute of Biomedicine, The Sahlgrenska Academy, University of Gothenberg, Gothenberg, Sweden, personal communication) state that “we only use species with 10 or more MIC observations, to avoid drawing conclusions from insufficient data […] . The only species with >10 observations in the Noto et al. (1969) paper is S[taphylococcus] aureus. In addition, when the MIC1% are selected, only one MIC [J.O.Straub's italics] value is selected per species (the lowest). Finally, the uncertainty factor for low sampling numbers is calculated as: (observed lowest MIC) × (number of tested species) ÷ 41.” Both these provisional PNECABR values were derived from the MPA MICs; the lower was selected and compared with the PECs and MECs.
Noto et al. (1969) tested the activity of MPA against various microorganisms, both fungi and some strains of bacteria. […] Higher inhibition of MPA was shown against pathogenic fungi of the genera Candida, Willia, Cryptococcus, Microsporum, Aspergillus, and Trichophyton, with MICs ranging from 3.9 to 500 mg/L (Noto et al. 1969).

[1] = OECD test guideline 106 batch equilibrium adsorption test; assay type: physicochemical
Protocol: An OECD 106 phase I batch equilibrium adsorption test was performed by Toxi-Coop, Balatonfűred, Hungary (Halász-Laky 2018) with MPA and three soils plus two activated sludges of different characteristics (pHKCl, organic carbon (OC) content, plus for the soils sand fraction, silt fraction, clay fraction and USDA soil texture).
In short, the substrates were put in contact with MPA in aqueous 0.01 M CaCl2 solutions; the mixture was agitated for an appropriate time to reach equilibrium, in the case of MPA for 10 hours. The soil/sludge suspensions were then separated and the aqueous phase diluted twofold with the mobile HPLC phase, analysed by HPLC (Supplemental Information) and the amount of test item in the water phase calculated. The soil or sludge phases were extracted twice with acetonitrile/water/1 mg/mL NaOH solution (75/75/2, v/v/v); the extracts were diluted twofold with the mobile phase and then analysed by HPLC. Based on the analytics the mass balance could be established. The adsorption constant Kd was calculated as MPA concentration adsorbed to substrate divided by MPA concentration in aqueous CaCl2 solution; subsequently the Kd was normalised to the OC content to result in the KOC for the different substrates (Halász-Laky 2018).

[2] = set-up: method as in Wishart et al. 2018; Royal Pharmaceutical Society 2018; conditions: ref Wishart et al. 2018; Royal Pharmaceutical Society 2018; cited from earlier work
[3] = set-up: method as in FASS 2018; conditions: OECD 209; ref FASS 2018; cited from earlier work
[4] = tested on: Wistar rat embryos, murine embryonic stem cells, and mouse fibroblasts; set-up: method as in Eckardt and Stahlmann 2010; conditions: mammalian systems; ref Eckardt and Stahlmann 2010; cited from earlier work
Danio rerio = assay: Fish partial life cycle test, OECD 229 short-term reproduction phase (F0); assay type: in vivo
Protocol: At the highest tested concentration of 0.1 mg MPA/L nominal concentration (73 µg/L GMMC), only 2 of 75 hatched fish survived until the end of the test, showing that the test concentration range was well chosen. The most sensitive endpoints in this partial life cycle test were survival and growth in terms of length and mass of the young F1 fish; the effects were comparatively small but statistically significant at p = 0.05. In contrast, the F0 generation was impacted to a lesser extent.
In view of the mammalian mutagenicity and reprotoxicity, a fish partial life-cycle test (PLC; an OECD 229 short-term reproduction test followed by an OECD 210 early-life-stage test) was performed by ECT Oekotoxikologie under GLP with a series of concentrations of MPA in a flow-through setting with the zebrafish Danio rerio (Gilberg & Chambers 2018). Briefly, mature fish (F0 generation) in breeding groups of 14 fish were exposed to four concentrations of the test item (0.0005, 0.0029, 0.0171 and 0.100 mg MPA/L), in fish media as well as to controls without the test item, in two replicates per treatment including controls, for 23 days in a 14-hours light to 10-hours dark photoperiod (OECD 229 phase). During this time period, reproduction parameters (survival of parents, fecundity, e.g., number of eggs, fertility and embryo viability/hatchability) of zebrafish exposed to the test item were assessed in comparison with the controls to determine the lowest observed effect concentration (LOEC) and the NOEC. After 23 days, newly fertilised eggs of the F1 generation were collected and exposed to the corresponding series of test item concentrations, 20 eggs in four replicates each per treatment including controls, until 30 days post-hatch (OECD 210 phase). Lethal and sublethal effects of the test item on eggs, larvae and juvenile fish exposed to the test item were assessed in comparison with controls to determine the LOEC and the NOEC. Samples were taken and analysed by LC–MS/MS (Supplemental Information) and the GMMC for the concentrations determined. Statistical check were made using Probit analyses, Weibull analyses, 2- and 3-parameter normal CDF, Shapiro-Wilk’s test on normal distribution, Levene’s test on variance homogeneity, Fisher's Exact Binomial test, Chi² 2×2 Table Test, Welsh t-test, Step-down Cochran-Armitage test Procedure, Williams Multiple Sequential t-test Procedure and Dunnett`s Multiple t-test Procedure.

[5] = set-up: method as in Franquet‐Griell et al. (2017a); conditions: ref Franquet‐Griell et al. (2017a); cited from earlier work
Artemia salina = tested on: Artemia salina; set-up: method as in earlier work; conditions: non‐GLP; ref Ďuračková et al. 1977; cited from earlier work

COc1c(C)c2c(c(O)c1CC=C(C)CCC(=O)O)C(=O)OC2 [MPA, 6‐(1,3‐dihydro‐4‐hydroxy‐6‐methoxy‐7‐methyl‐3‐oxo‐5‐isobenzofuranyl)‐4‐methyl‐4‐hexenoic acid]
provisional PNECABR (rounded down, selected) (bacteria; lower of the 2 values): 64 µg MPA/L
first provisional PNECABR (bacteria; lowest MIC divided by 100, following Kümmerer and Henninger (2003)): 312.5 µg/L
second provisional PNECABR (bacteria; procedure of Bengtsson‐Palme and Larsson (2016), before rounding): 76 µg/L
highest K OC ([1]; in one of the activated sludges): 37 L/kg
activated sludge K d ([1]; two activated sludges): 9.3 L/kg and 13 L/kg
fraction phase‐I‐metabolized to 6‐O‐desmethyl‐MPA [2]: less than 1%
terminal half‐life [2]: approximately 18 h
3‐h EC50, respiration inhibition [3]: 2213 µg/mL
EC10, respiration inhibition [3]: 69 µg/mL (≈ 215 µM)
concentrations causing proliferation, cellular and developmental toxicity [4]: ≥ 31 ng/mL
EC10 for survival of the parental fish (Danio rerio; 23 d, GMMC): 0.0189 µg/mL
NOEC of all endpoints (survival of parental fish, fecundity, fertilization success), F0 (Danio rerio; 23 d, GMMC): 73 µg/L
NOEC of all endpoints (survival of parental fish, fecundity, fertilization success), F0 (Danio rerio; 23 d, highest tested nominal concentration): 100 µg MPA/L
EC10 for fecundity and fertilization success (Danio rerio; Danio rerio, in vivo, 23 days): > 73 µg MPA/L
hydrolytic degradation constant [5]: 0.0002 min^–1
16‐h LC50 (Artemia salina): 98.4 mg MPA/L
